Records with an inconclusive call do not appear. The source made the active and inactive calls.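 How the source made its calls: active means compound lowering the normal-ribosome reporter at least twice as much as the humanized-ribosome reporter, growth loss under a set limit; inconclusive means no clear call, values can overlap the other calls; inactive means the rest.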
What was measured:
Experiment in all cases: growth of wild-type and h24-humanized E. coli strains – h24 mutant RFP vs wild-type GFP, cherry-pick, dose response (AID 977628);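 further: wild-type GFP and h24 humanized RFP strains co-cultured 1 to 1 per well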
[1] = test system: E. coli WT GFP strain growth, fluorescence, 24 h
[2] = test system: E. coli h24 humanized mutant RFP strain growth, fluorescence, 24 h
[3] = test system: E. coli mixed WT/h24 culture total growth, OD600, 24 h

SMILES | AC50 [1] | AC50 [2] [µM] | AC50 [3] [µM]
c1ccc(-c2nc(-c3cccnc3)cs2)cc1 | > 100 µM (inactive) | > 100 | > 100
COc1cc(NC(=O)COC(=O)CC(C)(C)C)c(C)cc1[N+](=O)[O-] | > 100 µM (inactive) | > 100 | > 100
O=C(O)c1cc(S(=O)(=O)N2CCN(C(c3ccccc3)c3ccccc3)CC2)ccc1Cl | > 100 µM (inactive) | > 100 | > 100
